Measured values reported in patent US9747412B2, “Method for identifying activation of transferases” (HVIVO SERVICES LIMITED, priority 2010, dated 2017).

System: epithelial cell line MCF10A
Assay: Global Kinase Activity Profiling (GKAP) of lysates of cells treated with EGF and kinase inhibitors
Assay type: cell-based, human
Details: for Decrease in the number of EGF-dependent kinase activities detected: MCF10A cells pre-treated 1 h with inhibitor (5 μM LY294002 or 10 μM U0126) before 100 ng/ml EGF for 10 min

Compound: O=c1cc(N2CCOCC2)oc2c(-c3ccccc3)cccc12 [LY92004]
- Decrease in the number of EGF-dependent kinase activities detected: about 30%

Compound: N#CC(=C(/N)Sc1ccccc1N)/C(C#N)=C(\N)Sc1ccccc1N [U0126]
- Decrease in the number of EGF-dependent kinase activities detected: about 30%

Compound: EGF: recombinant human EGF (Peprotech AF-100-15), growth factor activating kinase pathways downstream of its receptor (NSDSECPLSHDGYCLHDGVCMYIEALDKYACNCVVGYIGERCQYRDLKWWELR; UniProt P01133 971-1023, looked up)
- Number of kinase reactions that increased as a function of treatment (treatment with EGF (summary statement)): > 300
